In patent publication EP4574835A1, “AMORPHOUS FORM OF KETOAMIDE DERIVATIVE, AND PREPARATION METHOD THEREFOR” (Guangdong Raynovent Biotech Co., Ltd., priority 2022, dated 2024):

Assay: Pharmacokinetic model of mouse
Type: in vivo

Which clearance rate does the source give for O=C(NC1CCCC1)C(=O)[C@H](C[C@@H]1CCNC1=O)NC(=O)[C@@H]1[C@H]2CCC[C@H]2CN1C(=O)[C@@H](NC(=O)C(F)(F)F)C1CCCCC1 [Compound of Formula (I)] here?
Its clearance rate is “lower”.

And the half-life?
The half-life was “longer”.
